Laboratory results taken from US4605744A, “Imidazole derivatives” (Hoffmann-La Roche Inc., priority 1985, dated 1986).
Counter-ions that a name gives are not always drawn. Like-named read-outs stand apart in the source and are kept apart here.

Key:
Assay in all cases: In vitro antibacterial activity (MIC)
Format in all cases: cell-based
S. marcescens S5 = conditions: Serratia marcescens, S5, S. marcescens S5; read-out: MIC
How it was run: (§1)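 Mueller-Hinton broth carries the compound at 128–0.008 μg/ml; diluted drug may be used fresh or stored frozen at -10° to -70° C before use. Wells are seeded with a 10^-2 dilution of overnight culture and incubated overnight at 37° C.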

P. aeruginosa 5700 = conditions: Pseudomonas aeruginosa, 5700, P. aeruginosa 5700; read-out: MIC
How it was run: as §1

E. cloacae 5699 = conditions: Enterobacter cloacae, 5699, E. cloacae 5699; read-out: MIC
How it was run: as §1

P. aeruginosa 6148B = conditions: Pseudomonas aeruginosa, read-out: MIC
How it was run: as §1

S. marcescens S714 = conditions: Serratia marcescens
How it was run: as §1

E. coli R-563 = conditions: Escherichia coli, R563, E. coli R-563; read-out: MIC
How it was run: as §1

S. marcescens S4 = conditions: Serratia marcescens, S4, S. marcescens S4; read-out: MIC
How it was run: as §1

S. pneumoniae 6301 = conditions: Streptococcus pneumoniae, 6301, S. pneumoniae 6301; read-out: MIC
How it was run: as §1

S. pneumoniae SC = conditions: Streptococcus pneumoniae, read-out: MIC
How it was run: as §1

S. faecalis C1 = conditions: Enterococcus faecalis; S. faecalis C1; read-out: MIC
How it was run: as §1

P. vulgaris 101 = conditions: Proteus vulgaris, 101, P. vulgaris 101; read-out: MIC
How it was run: as §1

S. marcescens S1 = conditions: Serratia marcescens
How it was run: as §1

E. cloacae P99 = conditions: Enterobacter cloacae, P99, E. cloacae P99
How it was run: as §1

S. schottmuelleri = conditions: read-out: MIC
How it was run: as §1

C. diversus CDC 1663-72 = conditions: Citrobacter koseri, CDC166372; C. diversus CDC 1663-72; read-out: MIC
How it was run: as §1

E. coli 387-1 = test system: E. coli 387-1
How it was run: as §1

K. pneumoniae 4964 = test system: K. pneumoniae 4964
How it was run: as §1

E. cloacae 9570A = conditions: Enterobacter cloacae, read-out: MIC
How it was run: as §1

E. coli 4 = conditions: Escherichia coli, 4, E. coli 4; read-out: MIC
How it was run: as §1

P. mirabilis 90 = conditions: Proteus mirabilis, 90, P. mirabilis 90; read-out: MIC
How it was run: as §1

P. mirabilis 620A = conditions: Proteus mirabilis, 620A, P. mirabilis 620A; read-out: MIC
How it was run: as §1

S. marcescens S3 = conditions: Serratia marcescens; S. marcescens S3; read-out: MIC
How it was run: as §1

S. marcescens S2 = conditions: Serratia marcescens; S. marcescens S2; read-out: MIC
How it was run: as §1

E. aerogenes 503-478 = conditions: Klebsiella aerogenes, 503478, E. aerogenes 503-478; read-out: MIC
How it was run: as §1

P. vulgaris 100 = conditions: Proteus vulgaris
How it was run: as §1

K. pneumoniae 35 = test system: K. pneumoniae 35
How it was run: as §1

C. freundii CDC6 = conditions: Citrobacter freundii, CDC6, C. freundii CDC6; read-out: MIC
How it was run: as §1

P. mirabilis 190 = conditions: Proteus mirabilis, 190, P. mirabilis 190; read-out: MIC
How it was run: as §1

K. pneumoniae 503-964 = conditions: Klebsiella pneumoniae, 503964; K. pneumoniae 503-964; read-out: MIC
How it was run: as §1

E. coli 503-455 = test system: E. coli 503-455
How it was run: as §1

P. aeruginosa 503-820 = conditions: Pseudomonas aeruginosa, 503820; P. aeruginosa 503-820; read-out: MIC
How it was run: as §1

E. cloacae 214 = conditions: Enterobacter cloacae, 214, E. cloacae 214; read-out: MIC
How it was run: as §1

S. pyogenes 4 = conditions: Streptococcus pyogenes, 4, S. pyogenes 4; read-out: MIC
How it was run: as §1

E. coli 5152 = test system: E. coli 5152
How it was run: as §1

S. pyogenes 503-782 = conditions: Streptococcus pyogenes, 503782; S. pyogenes 503-782; read-out: MIC
How it was run: as §1

S. pneumoniae 6302 = conditions: Streptococcus pneumoniae, 6302, S. pneumoniae 6302; read-out: MIC
How it was run: as §1

K. pneumoniae 5096 = conditions: Klebsiella pneumoniae; K. pneumoniae 5096; read-out: MIC
How it was run: as §1

E. aerogenes 83 = conditions: Klebsiella aerogenes, 83, E. aerogenes 83; read-out: MIC
How it was run: as §1

S. marcescens S147 = conditions: Serratia marcescens; S. marcescens S147; read-out: MIC
How it was run: as §1

P. aeruginosa 8780 = conditions: Pseudomonas aeruginosa; P. aeruginosa 8780; read-out: MIC
How it was run: as §1

P. aeruginosa 8710 = conditions: Pseudomonas aeruginosa; P. aeruginosa 8710; read-out: MIC
How it was run: as §1

E. cloacae 9295 = conditions: Enterobacter cloacae, 9295, E. cloacae 9295; read-out: MIC
How it was run: as §1

C. freundii 8ASM = conditions: Citrobacter freundii, 8ASM, C. freundii 8ASM; read-out: MIC
How it was run: as §1

E. coli 48 = conditions: Escherichia coli, 48, E. coli 48; read-out: MIC
How it was run: as §1

S. aureus Giorgio = conditions: Staphylococcus aureus, S. aureus Giorgio; read-out: MIC
How it was run: as §1

CC1(C)S[C@@H]2[C@H](N=CN3CCC(CCC4=NCCN4)CC3)C(=O)N2[C@H]1C(=O)O [N, [2S-(2alpha,5alpha,6beta)]-6-[[[4-[4,5-dihydro-1H-imidazol-2-yl)ethyl]-1-piperidinyl]methylene]amino]-3,3-dimethyl-7-oxo-4-thia-1-azabicyclo[3.2.0]heptane-2-carboxylic acid hydrochloride]
MIC (S. marcescens S5): 0.25 µg/mL
MIC (P. aeruginosa 5700): 0.062 µg/mL
MIC (E. cloacae 5699): 0.062 µg/mL
MIC (P. aeruginosa 6148B): 32 µg/mL
MIC (S. marcescens S714; S714, S. marcescens S714, read-out: MIC): 0.125 µg/mL
MIC (E. coli R-563): 0.031 µg/mL
MIC (S. marcescens S4): 0.25 µg/mL
MIC (S. pneumoniae 6301): 1 µg/mL
MIC (S. pneumoniae SC): 1 µg/mL
MIC (S. faecalis C1): 64 µg/mL
MIC (P. vulgaris 101): 64 µg/mL
MIC (S. marcescens S1; S1): 2 µg/mL
MIC (E. cloacae P99): 0.016 µg/mL
MIC (S. schottmuelleri): 0.031 µg/mL
MIC (C. diversus CDC 1663-72): 0.031 µg/mL
MIC (E. coli 387-1; Escherichia coli, 3871, E. coli 387-1, read-out: MIC): 0.016 µg/mL
MIC (K. pneumoniae 4964; Klebsiella pneumoniae, 4964): 32 µg/mL
MIC (E. cloacae 9570A): 0.062 µg/mL
MIC (E. coli 4): 0.016 µg/mL
MIC (P. mirabilis 90): 0.125 µg/mL
MIC (P. mirabilis 620A): 128 µg/mL
MIC (S. marcescens S3): 0.062 µg/mL
MIC (S. marcescens S2): 0.062 µg/mL
MIC (E. aerogenes 503-478): 4 µg/mL
MIC (P. vulgaris 100; 100): 0.5 µg/mL
MIC (K. pneumoniae 35; Klebsiella pneumoniae, K. pneumoniae 35, read-out: MIC): 0.125 µg/mL
MIC (C. freundii CDC6): 0.031 µg/mL
MIC (P. mirabilis 190): 0.125 µg/mL
MIC (K. pneumoniae 503-964): 0.062 µg/mL
MIC (E. coli 503-455; Escherichia coli, 503455): 1 µg/mL
MIC (P. aeruginosa 503-820): 16 µg/mL
MIC (E. cloacae 214): 0.062 µg/mL
MIC (S. pyogenes 4): 1 µg/mL
MIC (E. coli 5152; Escherichia coli, 5152): 8 µg/mL
MIC (S. pyogenes 503-782): 64 µg/mL
MIC (S. pneumoniae 6302): 2 µg/mL
MIC (K. pneumoniae 5096): > 128 µg/mL
MIC (E. aerogenes 83): 8 µg/mL
MIC (S. marcescens S147): 0.062 µg/mL
MIC (P. aeruginosa 8780): 128 µg/mL
MIC (P. aeruginosa 8710): 32 µg/mL
MIC (E. cloacae 9295): 0.125 µg/mL
MIC (C. freundii 8ASM): 0.031 µg/mL
MIC (E. coli 48): 0.031 µg/mL

CC1(C)S[C@@H]2[C@H](N=CN3CCCC(c4ncc[nH]4)C3)C(=O)N2[C@H]1C(=O)O (stereo partly drawn) [P, [2S-(2alpha,5alpha,6beta)]-6-[[[3-(1H-imidazol-2-yl)-1-piperidinyl]methylene]amino]-3,3-dimethyl-7-oxo-4-thia-1-azabicyclo[3.2.0]heptane-2-carboxylicacid hydrochloride]
MIC (S. marcescens S5): > 128 µg/mL
MIC (P. aeruginosa 5700): 8 µg/mL
MIC (E. cloacae 5699): 8 µg/mL
MIC (S. marcescens S714; S714): 32 µg/mL
MIC (E. coli R-563): 2 µg/mL
MIC (S. marcescens S4): > 128 µg/mL
MIC (S. pneumoniae 6301): 1 µg/mL
MIC (P. vulgaris 101): 64 µg/mL
MIC (S. aureus Giorgio): 4 µg/mL
MIC (S. marcescens S1; S1, S. marcescens S1, read-out: MIC): 8 µg/mL
MIC (E. cloacae P99): 8 µg/mL
MIC (S. schottmuelleri): 2 µg/mL
MIC (C. diversus CDC 1663-72): 2 µg/mL
MIC (E. coli 387-1; Escherichia coli, 3871): 4 µg/mL
MIC (K. pneumoniae 4964; Klebsiella pneumoniae, 4964, K. pneumoniae 4964, read-out: MIC): 64 µg/mL
MIC (E. cloacae 9570A): 8 µg/mL
MIC (E. coli 4): 2 µg/mL
MIC (P. mirabilis 90): 8 µg/mL
MIC (P. mirabilis 620A): > 128 µg/mL
MIC (S. marcescens S3): 8 µg/mL
MIC (S. marcescens S2): 8 µg/mL
MIC (E. aerogenes 503-478): > 128 µg/mL
MIC (P. vulgaris 100; P. vulgaris 100, read-out: MIC): 128 µg/mL
MIC (K. pneumoniae 35; Klebsiella pneumoniae, 35, K. pneumoniae 35): 16 µg/mL
MIC (C. freundii CDC6): 4 µg/mL
MIC (P. mirabilis 190): 4 µg/mL
MIC (K. pneumoniae 503-964): 8 µg/mL
MIC (E. coli 503-455; Escherichia coli, 503455, E. coli 503-455, read-out: MIC): 64 µg/mL
MIC (E. cloacae 214): 8 µg/mL
MIC (E. coli 5152; Escherichia coli, 5152, E. coli 5152, read-out: MIC): > 128 µg/mL
MIC (K. pneumoniae 5096): 64 µg/mL
MIC (E. aerogenes 83): 8 µg/mL
MIC (S. marcescens S147): 8 µg/mL
MIC (E. cloacae 9295): 8 µg/mL
MIC (C. freundii 8ASM): 2 µg/mL
MIC (E. coli 48): 2 µg/mL
